According to US6780633B2, “Methods for producing optically active amino acids” (Sumitomo Chemical Company, Limited, priority 1999, dated 2004):

Assays:
Format in all cases: cell-based
[1] = test system: Nocardia diaphanozonaria strain JCM3208; experiment: effect of aminotransferase inhibitor on production of L-p-chlorophenylalanine from D-form by cells; details: inhibitor final concentration 1 mM; D-p-chlorophenylalanine 5.5 mM; 30° C., 2 hours (early stage); absence of inhibitor = 100%
Description: (§1) A 500 mL Sakaguchi flask containing 100 ml of a sterilized medium (pH 7.0) containing 1.0% (w/v) glycerol, 0.2% (w/v) polypeptone (Nihon Pharmaceutical Co., Ltd.), 0.3% (w/v) meat extract (Kyokuto Pharmaceutical Ind., Co., Ltd.), 0.3% (w/v) yeast extract (Difco), 0.1% (w/v) dipotassium phosphate, 0.1% (w/v) potassium mono phosphate, 0.03% (w/v) magnesium sulfate heptahydrate was inoculated with 1 mL of a culture of Nocardia diaphanozonaria strain JCM3208 which had previously been cultivated in a medium of the similar composition, and incubated at 30° C. for 2 days with a reciprocal shaking. 80 ml of this culture was subjected to centrifugation (10000 g, 10 minutes) to collect wet cells. The collected wet cells were washed twice with 80 ml of 100 mM potassium phosphate buffer (pH 7.0) and the wet cells thus obtained was suspended in 4 mL of 100 mM potassium phosphate buffer (pH 7.0) to obtain a cell suspension.
(§2) 0.2 ml of the cell suspension was combined with 1.8 mL of 100 mM potassium phosphate buffer (pH7.0) containing D-p-chlorophenylalanine at 5.5 mM and an aminotransferase inhibitor shown in Table 6 at 1.1 mM, and incubated at 30° C. for 2 hours with a reciprocal shaking at 250 rpm. Each reaction mixture was analyzed at an early stage of the reaction by HPLC to quantify L-p-chlorophenylalanine produced by the reaction. The results are represented as the relative values each based on 100% production of L-p-chlorophenylalanine in the absence of the respective aminotransferase inhibitor.

[2] = test system: Flavimonas oryzihabitans JCM2952; experiment: as above; details: inhibitor final 1 mM; 30° C., 2 hours; absence of inhibitor = 100%
Description: as §1, §2
(§3) The reaction was performed similarly as in Example 6 except for using each of the microorganisms shown in Table 7 instead of Nocardia diaphanozonaria strain JCM3208.

[3] = test system: Pseudomonas oleovorans IFO13583; experiment: as above; details: inhibitor final 1 mM; 30° C., 2 hours; absence of inhibitor = 100%
Description: as §1, §2, §3

[4] = test system: Pseudomonas taetrolens IFO3460; experiment: as above; details: inhibitor final 1 mM; 30° C., 2 hours; absence of inhibitor = 100%
Description: as §1, §2, §3

[5] = test system: Pseudomonas chlororaphis IFO3521; experiment: as above; details: inhibitor final 1 mM; 30° C., 2 hours; absence of inhibitor = 100%
Description: as §1, §2, §3

[6] = test system: Klebsiella planticola JCM7251; experiment: as above; details: inhibitor final 1 mM; 30° C., 2 hours; absence of inhibitor = 100%
Description: as §1, §2, §3

[7] = test system: Rhizobium meliloti IFO14782; experiment: as above; details: inhibitor final 1 mM; 30° C., 2 hours; absence of inhibitor = 100%
Description: as §1, §2, §3

[8] = test system: Saccharopolyspora hirsuta JCM9109; experiment: effect of aminotransferase inhibitor on production of L-p-chlorophenylalanine from D-form by cells, at equilibrium; details: inhibitor final 1 mM; 30° C., 24 hours (reaction equilibrated); absence of inhibitor = 100%
Description: as §1, §2
(§4) The reaction was performed similarly as in Example 6 except for using each of the microorganisms shown in Table 8 instead of Nocardia diaphanozonaria strain JCM3208 and except that the reaction time was 24 hours (when the reaction was equilibrated).

[9] = test system: Streptomyces roseus IFO12818; experiment: as above; details: inhibitor final 1 mM; 30° C., 24 hours (reaction equilibrated); absence of inhibitor = 100%
Description: as §1, §2, §4

[10] = test system: Pseudomonas oxalaticus IFO13593; experiment: as above; details: inhibitor final 1 mM; 30° C., 24 hours (reaction equilibrated); absence of inhibitor = 100%
Description: as §1, §2, §4

[11] = test system: Arthrobacter pascens IFO12139; experiment: as above; details: inhibitor final 1 mM; 30° C., 24 hours (reaction equilibrated); absence of inhibitor = 100%
Description: as §1, §2, §4

Q: With `N[C@@H](CCl)C(=O)O` [β-Chloro-L-alanine] as the compound, how does the “Relative value (%) of production of L-p-chlorophenylalanine” value [1] read?
A: Its value is 121%.

Q: What about the “Relative value (%) of production of L-p-chlorophenylalanine” value [2] of the same compound?
A: Its value is 92%.

Q: And the “Relative value (%) of production of L-p-chlorophenylalanine” value [3]?
A: Its value is 94%.

Q: What about the “Relative value (%) of production of L-p-chlorophenylalanine” value [4] of the same compound?
A: Its value is 87%.

Q: And the “Relative value (%) of production of L-p-chlorophenylalanine” value [5]?
A: The value was 102%.

Q: And the “Relative value (%) of production of L-p-chlorophenylalanine” value [6]?
A: The value was 92%.

Q: What about the “Relative value (%) of production of L-p-chlorophenylalanine” value [7] of the same compound?
A: Its value is 96%.

Q: What about the “Relative value (%) of production of L-p-chlorophenylalanine” value [8] of the same compound?
A: The value was 101%.

Q: What about the “Relative value (%) of production of L-p-chlorophenylalanine” value [9] of the same compound?
A: Its value is 95%.

Q: And the “Relative value (%) of production of L-p-chlorophenylalanine” value [10]?
A: Its value is 91%.

Q: What about the “Relative value (%) of production of L-p-chlorophenylalanine” value [11] of the same compound?
A: Its value is 84%.

Q: Which results are given for `N[C@H](CCl)C(=O)O` [β-Chloro-D-alanine]?
A: Relative value (%) of production of L-p-chlorophenylalanine [1]: 108%; Relative value (%) of production of L-p-chlorophenylalanine [2]: 144%; Relative value (%) of production of L-p-chlorophenylalanine [3]: 91%; Relative value (%) of production of L-p-chlorophenylalanine [4]: 84%; Relative value (%) of production of L-p-chlorophenylalanine [5]: 85%; Relative value (%) of production of L-p-chlorophenylalanine [6]: 90%; Relative value (%) of production of L-p-chlorophenylalanine [7]: 108%; Relative value (%) of production of L-p-chlorophenylalanine [8]: 99%; Relative value (%) of production of L-p-chlorophenylalanine [9]: 114%; Relative value (%) of production of L-p-chlorophenylalanine [10]: 124%; Relative value (%) of production of L-p-chlorophenylalanine [11]: 83%

Q: For `NC1C=CC=C(C(=O)O)C1` (racemic) [DL-Gabaculine], which “Relative value (%) of production of L-p-chlorophenylalanine” value [1] is on record?
A: The value was 92%.

Q: And the “Relative value (%) of production of L-p-chlorophenylalanine” value [2]?
A: Its value is 105%.

Q: And the “Relative value (%) of production of L-p-chlorophenylalanine” value [3]?
A: The value was 87%.

Q: What about the “Relative value (%) of production of L-p-chlorophenylalanine” value [4] of the same compound?
A: The value was 75%.

Q: What about the “Relative value (%) of production of L-p-chlorophenylalanine” value [5] of the same compound?
A: The value was 72%.

Q: And the “Relative value (%) of production of L-p-chlorophenylalanine” value [6]?
A: Its value is 102%.

Q: What about the “Relative value (%) of production of L-p-chlorophenylalanine” value [7] of the same compound?
A: Its value is 88%.

Q: And the “Relative value (%) of production of L-p-chlorophenylalanine” value [8]?
A: Its value is 97%.

Q: What about the “Relative value (%) of production of L-p-chlorophenylalanine” value [9] of the same compound?
A: The value was 97%.

Q: What about the “Relative value (%) of production of L-p-chlorophenylalanine” value [10] of the same compound?
A: The value was 105%.

Q: And the “Relative value (%) of production of L-p-chlorophenylalanine” value [11]?
A: The value was 96%.
